The source of these data is US20210267194A1, “SEED TREATMENT METHOD” (priority 2018, published 2021).

Converted amounts (≈) assume the structure as drawn. Read-outs that look alike come from different tables or passages of the source.

The conditions of series [1]: footnote a: Chemistry Dashboard of the US Environmental Protection Agency; cited from earlier work.
A short description of series [2]: Density of the active ingredient (Table 1). The class given is physicochemical.
For series [3] the following is noted: footnote a: Chemistry Dashboard of the US Environmental Protection Agency; cited from earlier work. The source holds these as a separate data set.
The nature of series [4]: Solubility in water of the active ingredient (Table 1). Particulars: for solubility: water.
A further series can be described thus: physchem. Particulars: water.

As for `Fc1ccc([C@]2(Cn3cncn3)O[C@H]2c2ccccc2Cl)cc1` (racemic) [Epoxiconazole], in series [1], the Density is 1.42^a g/mL. Compound `Cc1c(F)c(F)c(COC(=O)[C@@H]2[C@H](/C=C(\Cl)C(F)(F)F)C2(C)C)c(F)c1F` (racemic) [Tefluthrin] returned a Density in series [2] of 1.48 g/mL. Regarding `CO/C=C(/C(=O)OC)c1ccccc1Oc1cc(Oc2ccccc2C#N)ncn1` [Azoxystrobin], the Density in series [1] is on record as 1.34^a g/mL. The “Solubility in Water” value in series [3] is 6.01^a mg/L.

In the case of `CC1(C)C(C=C(Cl)Cl)C1C(=O)OC(C#N)c1ccc(F)c(Oc2ccccc2)c1` (stereo not drawn) [Beta-Cyfluthrin], the “Solubility in Water” value in series [4] was determined as 0.0012 µg/mL (≈ 0.00276 µM). This compound also showed a Density in series [2] of 1.35 g/mL.

In “physchem”, `COC(=O)Nc1nc2ccccc2[nH]1` [Carbendazim] yielded a solubility of 8 µg/mL (≈ 41.8 µM). Also, the figures for the Density in series [1] and in series [2] were 1.39^a g/mL and 1.45 g/mL, respectively. In the case of `CNC(=O)c1cc(Cl)cc(C)c1NC(=O)c1cc(Br)nn1-c1ncccc1Cl` [Chlorantraniliprole], the Density in series [1] is recorded as 1.65^a g/mL. With `CN/C(=N\[N+](=O)[O-])NCc1cnc(Cl)s1` [Clothianidin], the concentration in solution in series [4] (solubility) came to 340 µg/mL (≈ 1360 µM). Besides, the Density in series [2] worked out at 1.61 g/mL. For the compound `CNC(=O)c1cc(C#N)cc(C)c1NC(=O)c1cc(Br)nn1-c1ncccc1Cl` [Cyantraniliprole], in series [1], the Density is 1.65^a g/mL. For the compound `CC(C1CC1)C(O)(Cn1cncn1)c1ccc(Cl)cc1` (stereo not drawn) [Cyproconazole], the Density in series [1] is reported as 1.31^a g/mL. `CC[S+]([O-])c1c(C#N)nn(-c2c(Cl)cc(C(F)(F)F)cc2Cl)c1N` (stereo not drawn) [Ethiprole] yielded a Density in series [2] of 1.69 g/mL. In turn, `CSC1=N[C@@](C)(c2ccccc2)C(=O)N1Nc1ccccc1` [Fenamidone] showed a solubility in “physchem” of 7.8 µg/mL (≈ 25 µM). The same compound had a Density in series [2] of 1.29 g/mL. In turn, `N#Cc1nn(-c2c(Cl)cc(C(F)(F)F)cc2Cl)c(N)c1[S+]([O-])C(F)(F)F` (stereo not drawn) [Fipronil] came in with a solubility in “physchem” of 3.78 µg/mL (≈ 8.65 µM). In series [2], this compound showed a Density of 1.71 g/mL. As for `O=[N+]([O-])c1cc(C(F)(F)F)c(Cl)c([N+](=O)[O-])c1Nc1ncc(C(F)(F)F)cc1Cl` [Fluazinam], the Density in series [1] is on record as 1.80^a g/mL. Moreover, the “Solubility in Water” value in series [3] is 0.68^a mg/L.

With `Cc1cc(C(F)(C(F)(F)F)C(F)(F)F)ccc1NC(=O)c1cccc(I)c1C(=O)NC(C)(C)CS(C)(=O)=O` [Flubendiamide], the Density in series [1] is listed as 1.78^a g/mL. For `N#Cc1c[nH]cc1-c1cccc2c1OC(F)(F)O2` [Fludioxinil], the “Solubility in Water” value in series [4] was 1.8 µg/mL (≈ 7.25 µM). The compound also returned a Density in series [2] of 1.54 g/mL. `O=C(NCCc1ncc(C(F)(F)F)cc1Cl)c1ccccc1C(F)(F)F` [Fluopyram] yielded a solubility in series [4] of 16 µg/mL (≈ 40.3 µM). Moreover, the Density in series [2] came out at 1.53 g/mL. In the case of `CO/N=C(/C1=NOCCO1)c1ccccc1Oc1ncnc(Oc2ccccc2Cl)c1F` [Fluoxastrobin], in series [4], the solubility worked out at 2.29 µg/mL (≈ 4.99 µM). In series [2], this compound showed a Density of 1.42 g/mL. `O=C1C=C(N(Cc2ccc(Cl)nc2)CC(F)F)CO1` [Flupyradifurone]: the “Solubility in Water” value in series [4] stood at 3200 µg/mL (≈ 11100 µM). The same compound displayed a Density in series [2] of 1.43 g/mL.

In series [2], `O=c1c2cc(F)ccc2nc(-n2cncn2)n1-c1ccc(Cl)cc1Cl` [Fluquinconazole] yielded a Density of 1.58 g/mL. Take `O=[N+]([O-])NC1=NCCN1Cc1ccc(Cl)nc1` [Imidacloprid]: in series [4], the “Solubility in Water” value was 610 µg/mL (≈ 2390 µM). Further, the Density in series [2] is 1.54 g/mL. The compound `CC(C)C1CCC(Cc2ccc(Cl)cc2)C1(O)Cn1cncn1` (stereo not drawn) [Ipconazole] yielded a solubility in the series “physchem” of 9.34 µg/mL (≈ 28 µM). This compound also gave a Density in series [2] of 1.2 g/mL.

In turn, `CC(C)NC(=O)N1CC(=O)N(c2cc(Cl)cc(Cl)c2)C1=O` [Iprodione] yielded a solubility in “physchem” of 6.8 µg/mL (≈ 20.6 µM). In series [2], the Density amounted to 1 g/mL. In the case of `N#Cc1ccccc1NC(=O)c1snc(Cl)c1Cl` [Isotianil], the Density in series [1] is given as 1.56^a g/mL. The “Solubility in Water” value in series [4] is 0.5 µg/mL (≈ 1.68 µM). On to `COCC(=O)N(c1c(C)cccc1C)[C@H](C)C(=O)OC` [Metalaxyl-M], for which the Density in series [1] is on record as 1.09^a g/mL. With `COCC(=O)N(c1c(C)cccc1C)C(C)C(=O)OC` (stereo not drawn) [Metalaxyl], the solubility in series [4] came out at 8400 µg/mL (≈ 30100 µM). In series [2], this compound displayed a Density of 1.2 g/mL. Compound `CNC(=O)Oc1cc(C)c(SC)c(C)c1` [Methiocarb] displayed a solubility in series [4] of 27 µg/mL (≈ 120 µM). Further, in series [2], the Density is 1.25 g/mL. As for `CNC(=O)/C(=N/OC)c1ccccc1Oc1ccccc1` [Metominostrobin], the Density in series [1] is given as 1.13^a g/mL. Turning to `O=C(Nc1ccccc1)N(Cc1ccc(Cl)cc1)C1CCCC1` [Pencycuron], the “Solubility in Water” value in series [4] came to 0.3 µg/mL (≈ 0.912 µM). The compound also registered a Density in series [2] of 1.22 g/mL. Regarding `Cc1nn(C)c(F)c1C(=O)Nc1ccccc1C(C)CC(C)C` (stereo not drawn) [Penflufen], in series [1], the Density is listed as 1.18^a g/mL. In addition, the “Solubility in Water” value in series [4] was found to be 10.9 µg/mL (≈ 34.3 µM). Take `CO/C=C(/C(=O)OC)c1ccccc1COc1cccc(C(F)(F)F)n1` [Picoxystrobin]: the Density in series [1] is given as 1.28^a g/mL. In series [3], the “Solubility in Water” value is listed as 8.30^a mg/L. As for `CC12CC1(C)C(=O)N(c1cc(Cl)cc(Cl)c1)C2=O` (stereo not drawn) [Procymidone], in series [1], the Density is listed as 1.43^a g/mL. Regarding `CCCC1COC(Cn2cncn2)(c2ccc(Cl)cc2Cl)O1` (stereo not drawn) [Propiconazole], the Density in series [1] is listed as 1.39^a g/mL. Turning to `OC(Cc1ccccc1Cl)(Cn1nc[nH]c1=S)C1(Cl)CC1` (stereo not drawn) [Prothioconazole], in series [4], the solubility was 300 µg/mL (≈ 871 µM). Moreover, the Density in series [2] is 1.36 g/mL. As for `COC(=O)N(OC)c1ccccc1COc1ccn(-c2ccc(Cl)cc2)n1` [Pyraclostrobin], in series [1], the Density was 1.34^a g/mL. In series [3], the “Solubility in Water” value was 26.0^a mg/L. On to `CC(c1ccc(C(F)(F)F)nc1)S(C)(=O)=NC#N` (stereo not drawn) [Sulfoxaflor], for which the Density in series [1] was 1.34^a g/mL. In turn, `CC(C)(C)C(O)(CCc1ccc(Cl)cc1)Cn1cncn1` (stereo not drawn) [Tebuconazole] showed a Density in series [2] of 1.25 g/mL. `N#C/N=C1\SCCN1Cc1ccc(Cl)nc1` [Thiacloprid] had a solubility in series [4] of 184 µg/mL (≈ 728 µM). In addition, the Density in series [2] came out at 1.46 g/mL.

As for `CN1COCN(Cc2cnc(Cl)s2)/C1=N\[N+](=O)[O-]` [Thiamethoxam], in series [1], the Density was 1.76^a g/mL. The “Solubility in Water” value in series [3] was 1278^a mg/L. In the case of `CS/C(C)=N\OC(=O)N(C)SN(C)C(=O)O/N=C(\C)SC` [Thiodicarb], in series [4], the solubility stood at 22.2 µg/mL (≈ 62.6 µM). The compound further registered a Density in series [2] of 1.47 g/mL.

In “physchem”, `CC(C)(C)C(O)C(Oc1ccc(Cl)cc1)n1cncn1` (stereo not drawn) [Triadimenol] displayed a solubility of 72 µg/mL (≈ 243 µM). For the same compound, in series [2], the Density amounted to 1.27 g/mL. In the case of `CON=C(C(=O)OC)c1ccccc1CON=C(C)c1cccc(C(F)(F)F)c1` [Trifloxystrobin], the solubility in “physchem” came out at 0.61 µg/mL (≈ 1.49 µM). In addition, in series [2], the Density turned out to be 1.36 g/mL. Turning to Abamectin, the Density in series [1] is on record as 1.28^a g/mL. In addition, the “Solubility in Water” value in series [3] was 36.4^a mg/L. Spinetoram: the Density in series [1] is 1.18^a g/mL. Besides, the “Solubility in Water” value in series [3] was 162^a mg/L. Turning to Spinosad, in series [1], the Density was 1.20^a g/mL. Besides, the “Solubility in Water” value in series [3] is given as 295^a mg/L.
